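96-well plates; 48 h exposure; 5 concentrations. Endpoints by linear interpolation between flanking doses. Not reached: highest tested concentration assigned. TGI denotes the concentration required for complete inhibition of growth.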
Experiments:
Test in all cases: DTP human tumour cell line panel, 48 h
SF-539 CNS = tested on: SF-539 CNS
UACC-257 melanoma = tested on: UACC-257 melanoma
MALME-3M melanoma = tested on: MALME-3M melanoma
NCI/ADR-RES ovarian = tested on: NCI/ADR-RES ovarian
IGROV1 ovarian = tested on: IGROV1 ovarian
MCF7 breast = tested on: MCF7 breast
NCI-H23 lung = tested on: NCI-H23 lung
NCI-H460 lung = tested on: NCI-H460 lung
ACHN renal = tested on: ACHN renal
RXF 393 renal = tested on: RXF 393 renal
OVCAR-3 ovarian = tested on: OVCAR-3 ovarian
RPMI-8226 leukemia = tested on: RPMI-8226 leukemia
A498 renal = tested on: A498 renal
UO-31 renal = tested on: UO-31 renal
K-562 leukemia = tested on: K-562 leukemia
A549 NSCLC = tested on: A549 NSCLC
786-0 renal = tested on: 786-0 renal
BT-549 breast = tested on: BT-549 breast
SK-MEL-28 melanoma = tested on: SK-MEL-28 melanoma
SNB-75 CNS = tested on: SNB-75 CNS
HL-60(TB) leukemia = tested on: HL-60(TB) leukemia
CAKI-1 renal = tested on: CAKI-1 renal
HS 578T breast = tested on: HS 578T breast
OVCAR-5 ovarian = tested on: OVCAR-5 ovarian
OVCAR-8 ovarian = tested on: OVCAR-8 ovarian
UACC-62 melanoma = tested on: UACC-62 melanoma
SN12C renal = tested on: SN12C renal
MOLT-4 leukemia = tested on: MOLT-4 leukemia
MDA-MB-231 breast = tested on: MDA-MB-231 breast
LOX IMVI melanoma = tested on: LOX IMVI melanoma
HT29 colon = tested on: HT29 colon
MDA-N = tested on: MDA-N
EKVX NSCLC = tested on: EKVX NSCLC
COLO 205 colon = tested on: COLO 205 colon
SF-268 CNS = tested on: SF-268 CNS
M14 melanoma = tested on: M14 melanoma
PC-3 prostate = tested on: PC-3 prostate
SK-OV-3 ovarian = tested on: SK-OV-3 ovarian
SK-MEL-5 melanoma = tested on: SK-MEL-5 melanoma
HOP-62 NSCLC = tested on: HOP-62 NSCLC
DU-145 prostate = tested on: DU-145 prostate
HCT-15 colon = tested on: HCT-15 colon
U251 CNS = tested on: U251 CNS
HCT-116 colon = tested on: HCT-116 colon
SF-295 CNS = tested on: SF-295 CNS
SNB-19 CNS = tested on: SNB-19 CNS
SK-MEL-2 melanoma = tested on: SK-MEL-2 melanoma
SW-620 colon = tested on: SW-620 colon
CCRF-CEM leukemia = tested on: CCRF-CEM leukemia
SR leukemia = tested on: SR leukemia
KM12 colon = tested on: KM12 colon
NCI-H226 lung = tested on: NCI-H226 lung
OVCAR-4 ovarian = tested on: OVCAR-4 ovarian
T-47D breast = tested on: T-47D breast
TK-10 renal = tested on: TK-10 renal
MDA-MB-435 = tested on: MDA-MB-435
HOP-92 NSCLC = tested on: HOP-92 NSCLC
NCI-H522 lung = tested on: NCI-H522 lung
HCC-2998 colon = tested on: HCC-2998 colon

CC(=O)OC1CCC2(C)C(CCC3C4CC=C(C5(C)OCCO5)C4(C)CCC32)C1 (stereo not drawn)
TGI (SF-539 CNS): 42.7 µM | TGI (UACC-257 melanoma): 40.2 µM | TGI (MALME-3M melanoma): 53.4 µM | TGI (NCI/ADR-RES ovarian): 46 µM | TGI (IGROV1 ovarian): 70.4 µM | TGI (MCF7 breast): 53.9 µM | TGI (NCI-H23 lung): 66.6 µM | TGI (NCI-H460 lung): 47.8 µM | TGI (ACHN renal): > 100 µM | TGI (RXF 393 renal): 40.3 µM | TGI (OVCAR-3 ovarian): 44 µM | TGI (RPMI-8226 leukemia): 34.1 µM | TGI (A498 renal): 61.8 µM | TGI (UO-31 renal): 62 µM | TGI (K-562 leukemia): > 100 µM | TGI (A549 NSCLC): > 100 µM | TGI (786-0 renal): 77.4 µM | TGI (BT-549 breast): 45.8 µM | TGI (SK-MEL-28 melanoma): 43 µM | TGI (SNB-75 CNS): 73.7 µM | TGI (HL-60(TB) leukemia): 48.8 µM | TGI (CAKI-1 renal): > 100 µM | TGI (HS 578T breast): 60.1 µM | TGI (OVCAR-5 ovarian): 44.7 µM | TGI (OVCAR-8 ovarian): 48.8 µM | TGI (UACC-62 melanoma): 53.1 µM | TGI (SN12C renal): 44.4 µM | TGI (MOLT-4 leukemia): 65.5 µM | TGI (MDA-MB-231 breast): > 100 µM | TGI (LOX IMVI melanoma): 32.8 µM | TGI (HT29 colon): 38.3 µM | TGI (MDA-N): 44 µM | TGI (EKVX NSCLC): 44.1 µM | TGI (COLO 205 colon): 32.9 µM | TGI (SF-268 CNS): > 100 µM | TGI (M14 melanoma): 52.8 µM | TGI (PC-3 prostate): 54.2 µM | TGI (SK-OV-3 ovarian): > 100 µM | TGI (SK-MEL-5 melanoma): 28.9 µM | TGI (HOP-62 NSCLC): 44.1 µM | TGI (DU-145 prostate): > 100 µM | TGI (HCT-15 colon): 80.6 µM | TGI (U251 CNS): 39.4 µM | TGI (HCT-116 colon): 45.3 µM | TGI (SF-295 CNS): 57.2 µM | TGI (SNB-19 CNS): > 100 µM | TGI (SK-MEL-2 melanoma): 37.4 µM | TGI (SW-620 colon): 45.6 µM | TGI (CCRF-CEM leukemia): 38.4 µM | TGI (SR leukemia): 54.2 µM | TGI (KM12 colon): 67.4 µM | TGI (NCI-H226 lung): 66.8 µM | TGI (OVCAR-4 ovarian): 61 µM | TGI (T-47D breast): > 100 µM | TGI (TK-10 renal): > 100 µM | TGI (MDA-MB-435): 47.9 µM

O=C(Nc1ccc2ncccc2c1)c1cc2c(cc1Cl)Sc1nccn1S2(=O)=O
TGI (SF-539 CNS): 57.4 µM | TGI (UACC-257 melanoma): 47.8 µM | TGI (MALME-3M melanoma): 35.1 µM | TGI (HOP-92 NSCLC): 76.7 µM | TGI (NCI/ADR-RES ovarian): 47.6 µM | TGI (IGROV1 ovarian): 29.3 µM | TGI (MCF7 breast): 35.2 µM | TGI (NCI-H522 lung): 24.5 µM | TGI (NCI-H23 lung): 32.5 µM | TGI (NCI-H460 lung): 30.6 µM | TGI (ACHN renal): 87.6 µM | TGI (RXF 393 renal): 33.6 µM | TGI (OVCAR-3 ovarian): 47.6 µM | TGI (RPMI-8226 leukemia): 41 µM | TGI (UO-31 renal): 39.8 µM | TGI (K-562 leukemia): 47 µM | TGI (A549 NSCLC): 40.6 µM | TGI (786-0 renal): 27.9 µM | TGI (BT-549 breast): 41.2 µM | TGI (SK-MEL-28 melanoma): 42 µM | TGI (SNB-75 CNS): 30.7 µM | TGI (HL-60(TB) leukemia): 26.6 µM | TGI (CAKI-1 renal): 79.5 µM | TGI (HS 578T breast): > 100 µM | TGI (OVCAR-5 ovarian): 39.6 µM | TGI (OVCAR-8 ovarian): 43.7 µM | TGI (UACC-62 melanoma): 32.7 µM | TGI (SN12C renal): 33.3 µM | TGI (MOLT-4 leukemia): 45.5 µM | TGI (HCC-2998 colon): 27.8 µM | TGI (MDA-MB-231 breast): 45.1 µM | TGI (LOX IMVI melanoma): 34.2 µM | TGI (HT29 colon): 31.3 µM | TGI (MDA-N): 18.3 µM | TGI (EKVX NSCLC): 39.1 µM | TGI (COLO 205 colon): 37.3 µM | TGI (SF-268 CNS): 48.4 µM | TGI (M14 melanoma): 29.8 µM | TGI (PC-3 prostate): > 100 µM | TGI (SK-OV-3 ovarian): 62.5 µM | TGI (SK-MEL-5 melanoma): 28.8 µM | TGI (HOP-62 NSCLC): 39.8 µM | TGI (DU-145 prostate): 31 µM | TGI (HCT-15 colon): 24.1 µM | TGI (U251 CNS): 26.4 µM | TGI (HCT-116 colon): 25.4 µM | TGI (SF-295 CNS): 42 µM | TGI (SNB-19 CNS): 34.6 µM | TGI (SK-MEL-2 melanoma): 33.3 µM | TGI (SW-620 colon): 34.1 µM | TGI (SR leukemia): 45.2 µM | TGI (KM12 colon): 21.7 µM | TGI (NCI-H226 lung): 35.4 µM | TGI (OVCAR-4 ovarian): 73 µM | TGI (T-47D breast): 45.4 µM | TGI (TK-10 renal): 69.4 µM | TGI (MDA-MB-435): 17.1 µM
